The text below walks through data of ChEMBL document CHEMBL5518224, “Rational Design of PARP1/c-Met Dual Inhibitors for Overcoming PARP1 Inhibitor Resistance Induced by c-Met Overexpression” (J Med Chem, 2024).

The source made the active and inactive calls. No cut-off for these calls is given here.

Assay [1] addresses Hepatocyte growth factor receptor (Homo sapiens, UniProt P08581). Put plainly: Inhibition of c-Met (unknown origin).
Assay [2] concerns MDA-MB-231. Put plainly: Antiproliferative activity against human MDA-MB-231 cells harboring wild type BRCA and c-Met amplification assessed as inhibition of cell growth incubated for 7 days by MTT assay. The format is functional, cell-based. The following applies: MDA-MB-231, 168 h. In general terms: Tetrazolium dyes change colour on reduction, which living cells bring about.

For the next assay, the system named is MDA-MB-468. Put plainly: Antiproliferative activity against human MDA-MB-468 cells harboring wild type BRCA1/2, HR-proficient and non-c-Met amplification assessed as inhibition of cell growth incubated for 7 days by MTT assay. The format is functional, cell-based. The settings on record: MDA-MB-468, 168 h.
A short description of assay [3]: Antiproliferative activity against human Olaparib-resistant HCC1937 cells harboring BRCA1 mutant and PARP1 overexpression assessed as inhibition of cell growth incubated for 7 days by MTT assay. In kind it is functional, cell-based. The following applies: Olaparib-resistant HCC1937, 168 h.
The test system of assay [4] is Olaparib-resistant HCT116. Put plainly: Antiproliferative activity against human Olaparib-resistant HCT116 cells harboring BRCA2 mutant assessed as inhibition of cell growth incubated for 7 days by MTT assay. The format is functional, cell-based. The following applies: Olaparib-resistant HCT116, 168 h.
The test system of assay [5] is MDA-MB-231. Put plainly: Induction of apoptosis in human MDA-MB-231 cells assessed as live cells at 1 uM incubated for 4 days by Annexin V-FITC/PI staining based flow cytometry analysis (reference value: 94.6%). The following applies: time 4 day. The format is functional. Background: Flow cytometry measures light scatter and fluorescence of single cells or particles in a stream.

Assay [6] deals with MDA-MB-231. Put plainly: Induction of apoptosis in human MDA-MB-231 cells assessed as early apoptotic cells at 1 uM incubated for 4 days by Annexin V-FITC/PI staining based flow cytometry analysis (reference value: 3.88%). The following applies: time 4 day. In kind it is functional.
In assay [7] the test system is MDA-MB-231. Put plainly: Induction of apoptosis in human MDA-MB-231 cells assessed as late apoptotic cells at 1 uM incubated for 4 days by Annexin V-FITC/PI staining based flow cytometry analysis (reference value: 0.81%). In kind it is functional. The following applies: time 4 day.
The test system of assay [8] is MDA-MB-231. Put plainly: Induction of apoptosis in human MDA-MB-231 cells assessed as dead cells at 1 uM incubated for 4 days by Annexin V-FITC/PI staining based flow cytometry analysis (reference value: 0.72%). In kind it is functional. The settings on record: time 4 day.
The test system of assay [9] is MDA-MB-231. Put plainly: Induction of apoptosis in human MDA-MB-231 cells assessed as live cells at 1 uM incubated for 4 days in presence of crizotinib at 0.5 uM by Annexin V-FITC/PI staining based flow cytometry analysis (reference value: 94.6%). The format is functional. The settings on record: time 4 day.
In assay [10] the test system is MDA-MB-231. Put plainly: Induction of apoptosis in human MDA-MB-231 cells assessed as early apoptotic cells at 1 uM incubated for 4 days in presence of crizotinib at 0.5 uM by Annexin V-FITC/PI staining based flow cytometry analysis (reference value: 3.88%). The settings on record: time 4 day. In kind it is functional.
For assay [11], the system named is MDA-MB-231. Put plainly: Induction of apoptosis in human MDA-MB-231 cells assessed as late apoptotic cells at 1 uM incubated for 4 days in presence of crizotinib at 0.5 uM by Annexin V-FITC/PI staining based flow cytometry analysis (reference value: 0.81%). In kind it is functional. The settings on record: time 4 day.
Assay [12] deals with MDA-MB-231. Put plainly: Induction of apoptosis in human MDA-MB-231 cells assessed as dead cells at 1 uM incubated for 4 days in presence of crizotinib at 0.5 uM by Annexin V-FITC/PI staining based flow cytometry analysis (reference value: 0.72%). In kind it is functional. The following applies: time 4 day.
The test system of assay [13] is MDA-MB-231. Put plainly: Antitumor activity against human MDA-MB-231 cells xenografted in female Balb/c nude mouse assessed as tumor growth inhibition at 50 mg/kg/day, ip qd administered for 28 days relative to control. The settings on record: time 28 day. In kind it is functional. For orientation: In xenograft studies the graft and the host belong to different species.

The test system of assay [14] is Olaparib-resistant HCT116. Put plainly: Antitumor activity against human Olaparib-resistant HCT116 cells xenografted in female Balb/c nude mouse assessed as tumor growth inhibition at 50 mg/kg/day, ip qd administered for 21 days relative to control. The settings on record: time 21 day. In kind it is functional.
Assay [15] concerns Olaparib-resistant HCT116. Put plainly: Antitumor activity against human Olaparib-resistant HCT116 cells xenografted in female Balb/c nude mouse assessed as tumor growth inhibition at 50 mg/kg/day, ip qd administered for 21 days in presence of crizotinib at 25 mg/kg/day, po qd relative to control. The format is functional. The settings on record: time 21 day.
Assay [16] concerns MDA-MB-231. Put plainly: Antitumor activity against human MDA-MB-231 cells xenografted in female Balb/c nude mouse assessed as reduction in tumor weight at 50 mg/kg/day, ip qd administered for 28 days in presence of crizotinib at 25 mg/kg, po qd. In kind it is functional, organism-based. The following applies: time 28.0 day.
Assay [17] deals with Olaparib-resistant HCT116. Put plainly: Antitumor activity against human Olaparib-resistant HCT116 cells xenografted in female Balb/c nude mouse assessed as reduction in tumor weight at 50 mg/kg/day, ip qd administered for 21 days in presence of crizotinib at 25 mg/kg/day, po qd. In kind it is functional, organism-based. The settings on record: time 21.0 day.
Assay [18] deals with Olaparib-resistant HCT116. Put plainly: Antitumor activity against human Olaparib-resistant HCT116 cells xenografted in female Balb/c nude mouse assessed as reduction in tumor weight at 25 mg/kg/day, po qd administered for 21 days in presence of olaparib at 50 mg/kg/day, ip qd. In kind it is functional, organism-based. The settings on record: time 21.0 day.
The test system of assay [19] is MDA-MB-231. Put plainly: Antitumor activity against human MDA-MB-231 cells xenografted in female Balb/c nude mouse assessed as reduction in tumor weight at 50 mg/kg/day, ip qd administered for 28 days. The format is functional, organism-based. The settings on record: time 28.0 day.
For assay [20], the system named is Olaparib-resistant HCT116. Put plainly: Antitumor activity against human Olaparib-resistant HCT116 cells xenografted in female Balb/c nude mouse assessed as reduction in tumor weight at 50 mg/kg/day, ip qd administered for 21 days. The settings on record: time 21.0 day. In kind it is functional, organism-based.

Hepatocyte growth factor receptor, sequence (P08581 whole entry): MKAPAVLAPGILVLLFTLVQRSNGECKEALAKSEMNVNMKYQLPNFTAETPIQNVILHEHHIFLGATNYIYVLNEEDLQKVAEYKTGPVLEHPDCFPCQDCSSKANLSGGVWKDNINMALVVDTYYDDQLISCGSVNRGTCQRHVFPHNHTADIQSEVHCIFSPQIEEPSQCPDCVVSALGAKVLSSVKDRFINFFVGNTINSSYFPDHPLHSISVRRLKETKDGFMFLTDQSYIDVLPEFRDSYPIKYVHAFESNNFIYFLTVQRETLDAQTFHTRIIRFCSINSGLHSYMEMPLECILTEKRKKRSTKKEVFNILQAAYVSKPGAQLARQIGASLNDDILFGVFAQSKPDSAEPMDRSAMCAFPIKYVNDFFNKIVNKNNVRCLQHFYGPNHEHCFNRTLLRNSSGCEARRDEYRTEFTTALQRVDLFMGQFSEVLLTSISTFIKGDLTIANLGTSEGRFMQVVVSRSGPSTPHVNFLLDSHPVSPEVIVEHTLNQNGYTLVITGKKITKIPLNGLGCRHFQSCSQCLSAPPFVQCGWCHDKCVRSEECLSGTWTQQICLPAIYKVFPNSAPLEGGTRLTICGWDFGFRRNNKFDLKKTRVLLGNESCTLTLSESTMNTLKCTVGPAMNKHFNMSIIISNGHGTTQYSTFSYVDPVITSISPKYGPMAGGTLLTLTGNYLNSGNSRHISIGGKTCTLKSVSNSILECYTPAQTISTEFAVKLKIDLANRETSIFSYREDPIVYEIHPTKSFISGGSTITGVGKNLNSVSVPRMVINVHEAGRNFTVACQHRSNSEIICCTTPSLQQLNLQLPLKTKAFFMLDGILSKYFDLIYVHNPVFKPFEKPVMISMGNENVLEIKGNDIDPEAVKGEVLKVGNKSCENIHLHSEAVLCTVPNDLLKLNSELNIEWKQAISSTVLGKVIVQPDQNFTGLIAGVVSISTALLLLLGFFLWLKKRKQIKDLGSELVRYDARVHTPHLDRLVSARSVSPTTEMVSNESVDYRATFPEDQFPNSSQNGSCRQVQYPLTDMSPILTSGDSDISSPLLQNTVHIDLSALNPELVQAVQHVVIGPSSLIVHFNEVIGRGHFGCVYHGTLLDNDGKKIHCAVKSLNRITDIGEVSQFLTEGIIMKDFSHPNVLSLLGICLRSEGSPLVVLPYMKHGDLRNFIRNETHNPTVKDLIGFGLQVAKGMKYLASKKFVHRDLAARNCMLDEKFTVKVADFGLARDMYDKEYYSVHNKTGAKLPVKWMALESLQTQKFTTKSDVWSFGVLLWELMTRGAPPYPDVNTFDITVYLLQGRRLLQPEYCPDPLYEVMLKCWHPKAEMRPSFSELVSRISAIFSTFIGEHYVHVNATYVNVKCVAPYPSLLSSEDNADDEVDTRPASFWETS

The term Ki denotes a measure of affinity in units of concentration, obtained from inhibition or displacement. For the compound `O=C1NC(=O)[C@@H](c2cn3c4c(cccc24)CCC3)[C@@H]1c1c[nH]c2ccccc12` [TIVANTINIB], the Ki in assay [1] stood at 0.335 µM.
The term IC50 denotes the point on the concentration scale where inhibition reaches its midpoint. Usually TGI stands for how far tumour growth fell short of that in controls. Consider `O=C(c1cc(Cc2n[nH]c(=O)c3ccccc23)ccc1F)N1CCN(C(=O)C2CC2)CC1` [OLAPARIB], for which the IC50 with MDA-MB-231 [2] came out at 30.7 µM; with MDA-MB-468, 9.23 µM; in [3], 18.9 µM; in assay [4] it was 50.8 µM. Also, the Activity in the assay with MDA-MB-231 [5] is 88.9%; with MDA-MB-231 [6], 3.77%; in the assay on MDA-MB-231 [7] it was 2.48%; in the assay with MDA-MB-231 [8] it was 4.86%; in the assay with MDA-MB-231 [9], 76.9%; in the assay on MDA-MB-231 [10], 7.12%. For the same compound, the Activity was 6.57% in the assay with MDA-MB-231 [11] and 9.45% in the assay on MDA-MB-231 [12]. Also, the TGI came to 27% in the assay with MDA-MB-231 [13], 26% in [14] and 48% in assay [15]. The outcome (in the assay on MDA-MB-231 [16]; in [17]; in assay [18]; in the assay with MDA-MB-231 [19]; in assay [20]) was Active.
